Source: patent US9303049B2, “Nanodot and method for manufacturing the same” (National Sun Yat-sen University, priority 2013, dated 2016)

Experiments:
SK-Hep-1 cell [1] = assay: Bioprobing and bioimaging, fluorescence microscopy of SK-Hep-1 cell; type: cell-based; details: for fluorescence signal in SK-Hep-1 cell: 48 hours incubation, nanodot solutions 20 mM, different excitation light sources
Procedure: SK-Hep-1 cell was incubated under 37° C. for 12 hours (overnight). Then avidin (purchased from Sigma) was added into the SK-Hep-1 cell to form a cell culture. […] Then the cell was fixed by paraformaldehyde.
SK-Hep-1 cell was incubated under 37° C. for 12 hours (overnight). Then avidin-FITC (purchased from Sigma) was added into the SK-Hep-1 cell to form a cell culture.
SK-Hep-1 cell was incubated under 37° C. for 12 hours (overnight). Then the 3-aminopropyltriethoxysilane nanodot solution (20 mM) prepared in example 4 and the avidin modified 3-aminopropyltriethoxysilane nanodot solution (20 mM) were added into this SK-Hep-1 cell to form two cell cultures respectively. […] Then the cell was fixed by paraformaldehyde. […] Referring to FIG. 10, FIGS. 10(a)-(d) show the SK-Hep-1 cell added with 3-aminopropyltriethoxysilane nanodot solution. FIGS. 10(m)-(p) show the SK-Hep-1 cell added with avidin modified 3-aminopropyltriethoxysilane nanodot solution. […] Therefore, the fluorescence signal of FIGS. 10(b)-(d) and (n)-(p) resulted from the nanodot. In addition, FIGS. 10(i)-(I) show the SK-Hep-1 cell added with avidin-FITC. […] FIGS. 13(a)-(c) show the images of the SK-Hep-1 cell added with 3-aminopropyltriethoxysilane nanodot solution and continuously irradiated with excitation light, wherein FIGS. 13(a)-(c) are the images observed at 0 minutes, 2 minutes and 5 minutes respectively. FIGS. 13(d)-(f) show the images of the SK-Hep-1 cell added with avidin-FITC and continuously irradiated with excitation light, wherein FIGS. 13(d)-(f) are the images observed at 0 minutes, 2 minutes and 5 minutes respectively. FIGS. 13(g)-(i) show the images of the SK-Hep-1 cell added with avidin modified 3-aminopropyltriethoxysilane nanodot solution and continuously irradiated with excitation light, wherein FIGS. 13(g)-(i) are the images observed at 0 minutes, 2 minutes and 5 minutes respectively. […] Therefore, the nanodot has better photo stability.

SK-Hep-1 cell [2] = assay: Stability measurement of fluorescence under continuous excitation light in SK-Hep-1 cell; type: cell-based; details: continuously irradiated with excitation light, observed at 2 minutes and 5 minutes versus 0 minutes
Procedure: SK-Hep-1 cell was incubated under 37° C. for 12 hours (overnight). Then the 3-aminopropyltriethoxysilane nanodot solution (20 mM) prepared in example 4 and the avidin modified 3-aminopropyltriethoxysilane nanodot solution (20 mM) were added into this SK-Hep-1 cell to form two cell cultures respectively. […] Then the cell was fixed by paraformaldehyde. […] Referring to FIG. 10, FIGS. 10(a)-(d) show the SK-Hep-1 cell added with 3-aminopropyltriethoxysilane nanodot solution. FIGS. 10(m)-(p) show the SK-Hep-1 cell added with avidin modified 3-aminopropyltriethoxysilane nanodot solution. […] Therefore, the fluorescence signal of FIGS. 10(b)-(d) and (n)-(p) resulted from the nanodot. In addition, FIGS. 10(i)-(I) show the SK-Hep-1 cell added with avidin-FITC. […] FIGS. 13(a)-(c) show the images of the SK-Hep-1 cell added with 3-aminopropyltriethoxysilane nanodot solution and continuously irradiated with excitation light, wherein FIGS. 13(a)-(c) are the images observed at 0 minutes, 2 minutes and 5 minutes respectively. FIGS. 13(d)-(f) show the images of the SK-Hep-1 cell added with avidin-FITC and continuously irradiated with excitation light, wherein FIGS. 13(d)-(f) are the images observed at 0 minutes, 2 minutes and 5 minutes respectively. […]

Substance | fluorescence signal in SK-Hep-1 cell (SK-Hep-1 cell [1]) | effect of avidin modification on entry into cells (SK-Hep-1 cell [1]; FIGS. 10(n)-(p) compared with FIGS. 10(b)-(d), SK-Hep-1 cell, 48 hours) | fluorescence after continuous irradiation (photo stability) (SK-Hep-1 cell [2])
avidin | no fluorescence signal | – | –
avidin modified 3-aminopropyltriethoxysilane nanodot: 3-aminopropyltriethoxysilane nanodot of example 4 modified with avidin | significant multiphoton fluorescence with red, green and blue lights emitted | enhance the efficiency of the nanodot to enter into cells and aggregate in cells | only became slightly weak
avidin-FITC: avidin-FITC purchased from Sigma; FITC is a conventional organic fluorescent dye widely applied in bioimaging | could not emit blue and red fluorescence | – | nearly no fluorescence
